Structures can show the parent of a compound that is named as a salt.

Usually melting point stands for the temperature of the solid-liquid transition. As for `O=C(NCC12CC3CC(CC(C3)C1)C2)c1cccc(NCCNCCc2c[nH]cn2)c1Cl` [Example 77, 2-Chloro-3-(N-(2-[imidazoyl-4-yl]ethyl)-2-aminoethyl)amino-N-(tricyclo[3.3.1.1^3,7]dec-1-ylmethyl)-benzamide], the melting point fell in the range of 86 to 87 °C.

Turning to `O=C(NCC12CC3CC(CC(C3)C1)C2)c1cccnc1NCCN1CCCC1` (as salt: hydrochloride) [Example 33, 2-(2-(Pyrrolidin-1-yl)ethylamino)-N-(tricyclo[3.3.1.1^3,7]dec-1-ylmethyl)-3-pyridine carboxamide, dihydrochloride], the melting point lay within 266 to 268 °C.

As for `Nc1ccc(Cl)c(C(=O)NCCC23CC4CC(CC(C4)C2)C3)c1` [Example 74, 5-Amino-2-chloro-N-(2-[tricyclo[3.3.1.1^3,7]dec-1-yl]ethyl)-benzamide], the melting point lay within 147 to 149 °C.

On to `CN(C)CCOc1ccc(Cl)c(C(=O)NCC23CC4CC(CC(C4)C2)C3)c1` [Example 60, 2-Chloro-5-(N,N-dimethylamino)ethyloxy-N-(tricyclo[3.3.1.1^3,7]dec-1-ylmethyl)-benzamide], for which the melting point was in the range of 144 to 147 °C.

The compound `CN(C)c1ncccc1C(=O)NCC12CC3CC(CC(C3)C1)C2` (as salt: hydrochloride) [Example 35, 2-(Dimethylamino)-N-(tricyclo[3.3.1.1^3,7]dec-1-ylmethyl)-3-pyridine carboxamide, hydrochloride] gave a melting point of 204 to 205 °C.

The compound `O=C(NCC12CC3CC(CC(C3)C1)C2)c1ccccc1[N+](=O)[O-]` [Example 9, 2-Nitro-N-(tricyclo[3.3.1.1^3,7]dec-1-methyl)-benzamide] displayed a melting point greater than 250 °C.

Regarding `O=C(NCC12CC3CC(CC(C3)C1)C2)c1ccc(Cl)cc1Cl`, the melting point was 180 to 182 °C.

Turning to `O=C(NCC12CC3CC(CC(C3)C1)C2)c1ccccc1Cc1ccccc1` [Example 23, 2-(Phenylmethyl) -N-(tricyclo[3.3.1.1^3,7]dec-1-methyl)-benzamide], the melting point is 156 to 157 °C.

As to `O=C(NCC12CC3CC(CC(C3)C1)C2)c1ccccc1C(F)(F)F` [Example 11, 2-(Trifluoromethyl)-N-(tricyclo[3.3.1.1^3,7]dec-1-methyl)-benzamide], the melting point was in the range of 165 to 167 °C.

The compound `COc1cc(OC)c(C)c(C(=O)NCC23CC4CC(CC(Cl)(C4)C2)C3)c1` [Example 79, 3,5-Dimethoxy-2-methyl-N-(3-chloro-tricyclo[3.3.1.1^3,7]dec-1ylmethyl)-benzamide] returned a melting point of 173 to 175 °C.

With `O=C(NCC12CC3CC(CC(C3)C1)C2)c1cccc(F)c1Cl` [Example 41, 2-Chloro-3-fluoro-N-(tricyclo[3.3.1.1^3,7]dec-1-ylmethyl)-benzamide], the melting point was in the range of 149 to 151 °C.

`O=C(NCC12CC3CC(CC(C3)C1)C2)c1c(F)cccc1C(F)(F)F` [Example 13, 2-(Trifluoromethyl)-6-flouro-N-(tricyclo(3.3.1.1^3,7]dec-1-methyl)-benzamide] had a melting point of 151 to 153 °C.

Turning to `C[S+]([O-])c1ncccc1C(=O)NCC12CC3CC(CC(C3)C1)C2` (centres unmarked) [Example 27, 2-(Methylsulphoxide)-N-(tricyclo[3.3.1.1^3,7]dec-1-methyl)-3-pyridine carboxamide], the melting point was 214 °C.

As for `O=C(NCC12CC3CC(CC(C3)C1)C2)c1cc(F)ccc1Cl` [Example 43, 2-Chloro-5-fluoro-N-(tricyclo[3.3.1.1^3,7]dec-1-ylmethyl)-benzamide], the melting point lay within 176 to 177 °C.

With `O=C(NCC12CC3CC(CC(C3)C1)C2)c1c(Cl)cccc1Cl` [Example 4, 2,6-Dichloro-N-(tricyclo[3.3.1.1^3,7]dec-1-methyl)-benzamide], the melting point lay in the range of 246 to 247 °C.

In turn, `NCCSc1ncccc1C(=O)NCC12CC3CC(CC(C3)C1)C2` (as salt: trifluoroacetate) [Example 31, 2-(2-Aminoethylthio)-N-(tricyclo[3.3.1.1^3,7]dec-1-ylmethyl)-3-pyridine carboxamide, trifluoroacetate] returned a melting point of 184 °C.

Consider `O=C(NCC12CC3CC(CC(C3)C1)C2)c1cccc(O)c1Cl` [Example 59], for which the melting point fell in the range of 234 to 235 °C.

Take `O=C(O)CSc1ncccc1C(=O)NCC12CC3CC(CC(C3)C1)C2` [Example 45, 3-[[(Tricyclo[3.3.1.1^3,7]dec-1-ylmethyl)amino]carbonyl]pyridyl-2-thioacetic acid]: the melting point fell in the range of 147 to 150 °C.

Regarding `CN(C)CCNc1cccc(C(=O)NCC23CC4CC(CC(C4)C2)C3)c1Cl` [Example 56, 2-Chloro-3-(N,N-dimethylamino)ethylamino-N-(tricyclo[3.3.1.1^3,7]dec-1-ylmethyl)-benzamide], the melting point came to 221 °C.

The compound `CN(C)CCOc1ccccc1C(=O)NCC12CC3CC(CC(C3)C1)C2.Cl` showed a melting point of 181 to 183 °C.

`Nc1cccc(Cl)c1C(=O)NCCC12CC3CC(CC(C3)C1)C2` [Example 29, 2-Amino-6-chloro-N-(2-[tricyclo[3.3.1.1^3,7]dec-1-yl]ethyl)-benzamide] returned a melting point of 132 to 134 °C.

`COc1cccc(OC)c1C(=O)NCC12CC3CC(CC(C3)C1)C2`: the melting point was in the range of 185 to 186 °C.

Consider `CN(C)CCCOc1ccc(Sc2ncccc2C(=O)NCC23CC4CC(CC(C4)C2)C3)cc1` (as salt: hydrochloride) [Example 48, 2-(4-(3-N,N-dimethylamino)propyloxyphenylthio)-N-(tricyclo[3.3.1.1^3,7]dec-1-ylmethyl)-3-pyridine carboxamide, dihydrochloride], for which the melting point is 177 to 178 °C.

Compound `COc1cc(OC)cc(C(=O)NCC23CC4CC(CC(C4)C2)C3)c1` [Example 68] gave a melting point of 130 to 133 °C.

In turn, `Cc1ccc(Sc2ncccc2C(=O)NCC23CC4CC(CC(C4)C2)C3)cc1` [Example 17, 2-(4-Methylphenylthio)-N-(tricyclo[3.3.1.1^3,7]dec-1-methyl)-3-pyridine carboxamide] had a melting point of 166 to 169 °C.

For `O=C(NCC12CC3CC(CC(C3)C1)C2)c1cc(N2CC2)ccc1Cl`, the melting point was 154 to 155 °C.

In turn, `O=C(NCC12CC3CC(CC(C3)C1)C2)c1cc(NCCNCC(O)c2ccccc2)ccc1Cl` (centres unmarked) [Example 69, 5-(N-(2-Hydroxy-2-phenylethyl)-2-aminoethyl)amino-2-chloro-N-(tricyclo[3.3.1.1^3,7]dec-1-ylmethyl)-benzamide] gave a melting point of 63 to 64 °C.

`CN(C)CCNc1ncccc1C(=O)NCC12CC3CC(CC(C3)C1)C2` (as salt: hydrochloride) [Example 32, 2-(2-(N,N-Dimethylamino)ethylamino)-N-(tricyclo[3.3.1.1^3,7]dec-1-ylmethyl)-3-pyridine carboxamide, dihydrochloride] displayed a melting point of 258 to 260 °C.

As to `O=C(NCC12CC3CC(CC(C3)C1)C2)c1cc([N+](=O)[O-])ccc1Cl` [Example 53, 2-Chloro-5-nitro-N-(tricyclo[3.3.1.1^3,7]dec-1-ylmethyl)-benzamide], the melting point amounted to 178 °C.

Take `O=C(NCC12CC3CC(CC(C3)C1)C2)c1ccccc1I` [Example 8, 2-Iodo-N-(tricyclo[3.3.1.1^3,7]dec-1-methyl)-benzamide]: the melting point is 194 to 195 °C.

`O=C(NCCC12CC3CC(CC(C3)C1)C2)c1ccccc1Cl` [Example 72, 2-Chloro-N-(2-[tricyclo[3.3.1.1^3,7]dec-1-yl]ethyl)-benzamide] registered a melting point of 125 to 127 °C.

In the case of `COc1ccc(Sc2ncccc2C(=O)NCC23CC4CC(CC(C4)C2)C3)cc1` [Example 40, 2-(4-Methoxyphenylthio)-N-(tricyclo[3.3.1.1^3,7]dec-1-ylmethyl)-3-pyridine carboxamide], the melting point fell in the range of 130 to 131 °C.

Turning to `Cc1c(N)cc(N)cc1C(=O)NCC12CC3CC(CC(C3)C1)C2` [Example 66, 3,5-Diamino-2-methyl-N-(tricyclo[3.3.1.1^3,7]dec-1-ylmethyl)-benzamide], the melting point was 220 °C (dec.).

Consider `O=C(NCC12CC3CC(CC(C3)C1)C2)c1cc(Cl)ccc1Cl` [Example 61, 2,5-Dichloro-N-(tricyclo[3.3.1.1^3,7]dec-1-ylmethyl)-benzamide], for which the melting point is 161 to 162 °C.

`CNc1ncccc1C(=O)NCC12CC3CC(CC(C3)C1)C2` (as salt: hydrochloride) [Example 34, 2-(Methylamino)-N-(tricyclo[3.3.1.1^3,7]dec-1-ylmethyl)-3-pyridine carboxamide, dihydrochloride]: the melting point fell in the range of 160 to 162 °C.

Compound `CC(C)(C)OC(=O)COc1ccccc1C(=O)NCC12CC3CC(CC(C3)C1)C2` [Example 25, 2-[[(Tricyclo[3.3.1.1^3,7]dec-1-ylmethyl)amino]carbony]phenyl-1-oxyacetic acid, 1,1-dimethylethyl ester] came in with a melting point of 101 to 103 °C.

In turn, `O=C(NCC12CC3CC(CC(C3)C1)C2)c1cccnc1N1CCCC1` (as salt: hydrochloride) [Example 36, 2-(Pyrrolidin-1-yl) N-(tricyclo[3.3.1.1^3,7]dec-1-ylmethyl)-3-pyridine carboxamide, dihydrochloride] came in with a melting point of 157 to 158 °C.

`CSc1ccccc1C(=O)NCC12CC3CC(CC(C3)C1)C2` [Example 18, 2-(Methylthio)-N-(tricyclo[3.3.1.1^3,7]dec-1-methyl)-benzamide] yielded a melting point of 171 to 172 °C.

The compound `CN(C)CCSc1ccccc1C(=O)NCC12CC3CC(CC(C3)C1)C2` [Example 39, 2-(2-(N,N-Dimethylamino)ethylthio)-N-(tricyclo[3.3.1.1^3,7]dec-1-ylmethyl)-benzamide] returned a melting point of 193 to 195 °C.

In turn, `O=C(NCC12CC3CC(CC(C3)C1)C2)c1cc(Cl)cc(Cl)c1` [Example 2, 3,5-Dichloro-N-(tricyclo[3.3.1.1^3,7]dec-1-methyl)-benzamide] displayed a melting point of 197 to 198 °C.

Turning to `O=C(NCC12CC3CC(CC(C3)C1)C2)c1ccc2[nH]ccc2c1` [Example 28, N-(tricyclo[3.3.1.1^3,7]dec-1-methyl)-5-indole carboxamide], the melting point lay within 206 to 207 °C.

Source of the values: US20010003121A1, “Novel compounds” (AstraZeneca UK Limited, priority 1997, published 2001).
